For one assay, the system named is collagen I. The assay is described as follows: ELISA measurement of collagen I synthesis (collagen I secreted into the medium) in fibroblast culture, 48 h. Format: cell-based, human. Conditions: for ng collagen I/10^4 cells/48 h: mean±SD, control 2004 ± 132; for ng coll. I/10,000 HF/48 h: control (Asc. 25 μM + DMSO 0.1%) 2466 ± 289. As for the experimental part:
An ELISA method is used to measure collagen I synthesis, with and without treatment, on a culture of fibroblasts originating from a face lift performed on a person.
a.1) Fibroblast cultures:
The fibroblasts are cultivated by the explant method up to the point of confluence, at 37° C., in a medium consisting of a mixture of E199-C medium and 10% fetal calf serum, in a humidity-saturated atmosphere containing 5% of CO2.
Then, after detachment with an isotonic solution containing 0.1% of trypsin and 0.02% of EDTA, buffered to pH 7.2, the cells are inoculated into 96-well microplates (FALCON) at a rate of 10^4 cells per well in an E199-C medium containing 2% of serum.
After 24 h this medium is replaced, for 48 h of incubation, with the same medium without serum and containing 25 μM sodium ascorbate (incubation medium), with or without the test products. The products, solubilized in DMSO, are added to the culture medium at different concentrations.
a.2) Assay of collagen I:
The amount of collagen I secreted into the medium after 48 h of incubation with or without the products was determined by means of an ELISA (Enzyme-Linked Immuno Sorbent Assay) test.
The incubation medium is collected and transferred to the wells of a microtiter plate (Nunc Immunoplate) containing protease inhibitors. Incubation for 24 h at 4° C. allows the collagen to adhere to the plastic. The plates are then rinsed with PBS (Phosphate Buffered Saline).
After 24 h of incubation at 4° C. with serum albumin to prevent non-specific antibody-plastic binding, anti-human collagen I rabbit antibodies (Institut Pasteur, Lyon, France) are added over 1.5 h at 22° C. After rinsing with PBS, the bound antibodies are disclosed with anti-rabbit IgG goat antibodies (INTERCHIM, Montlugon, France) conjugated with an alkaline phosphatase, which, in the presence of paranitrophenyl phosphate, will produce a paranitrophenol absorbing at 405 nm.
The optical densities obtained are converted to nanograms of collagen using a calibration curve established under the same experimental conditions with purified human collagen I (Institut Jacques Boy, France).
a.3) Statistical interpretation:
The amounts of collagen (mean±standard deviation) secreted by the treated and untreated cells are compared by means of a Student t test. The significance level is taken as 0.05.
b.1) The protocol described above is applied in order to study the effect of the concentration of ginsenoside R0 on the stimulation of collagen I synthesis.
Table 1 gives the results obtained with compositions respectively containing 0, 1, 2.5 and 10 μg of ginsenoside R0 per ml.

The subject of the next assay is collagen III. Put plainly: ELISA measurement of collagen III synthesis in fibroblast culture, 72 h. It counts as cell-based. Conditions: Homo sapiens, read-out: stimulation of synthesis of collagen III. The protocol:
The protocol is the same as that described with collagen I except that the ELISA is directed against collagen III (human) and the culture treatment time is 72 h instead of the 48 h with collagen I.
In general terms: In an ELISA, binding on a coated surface is turned into a signal by an enzyme label.

Where two headings read alike, the source gives them in different places.

Experimental findings from US5747538A, “Use of ginsenoside R0 or a plant extract containing same to promote collagen synthesis” (priority 1994, dated 1998) are described below.

Regarding `CC1(C)CC[C@]2(C(=O)O[C@@H]3O[C@H](CO)[C@@H](O)[C@H](O)[C@H]3O)CC[C@]3(C)C(=CC[C@@H]4[C@@]5(C)CC[C@H](O[C@@H]6O[C@H](C(=O)O)[C@@H](O)[C@H](O)[C@H]6O[C@@H]6O[C@H](CO)[C@@H](O)[C@H](O)[C@H]6O)C(C)(C)[C@@H]5CC[C@]43C)[C@@H]2C1` [ginsenoside R0], the activation at 1 µg/mL with collagen I (Homo sapiens, Fibroblast, 48 h, Table 1, 1 μg/ml, S: significant at the 0.05 level, read-out: Stimulation of synthesis (collagen I)) turned out to be 8%; with collagen I (Homo sapiens, Fibroblast, 48 h, Table 2, 1 μg/ml, Example 1 S (p = 0.021), Example 2 S (p = 0.0006), ginsenoside R0 NS, read-out: % stimulation/control (collagen I)), 1%. In addition, the activation at 2.5 µg/mL with collagen I (Homo sapiens, Fibroblast, 48 h, Table 1, 2.5 μg/ml, S: significant at the 0.05 level, read-out: Stimulation of synthesis (collagen I)) turned out to be 29%; with collagen III (2.5 μg/ml), 33%. The activation at 10 µg/mL was 44% in the assay on collagen I (Homo sapiens, Fibroblast, 48 h, Table 1, 10 μg/ml, S: significant at the 0.05 level, read-out: Stimulation of synthesis (collagen I)); 66% in the assay on collagen I (Homo sapiens, Fibroblast, 48 h, Table 2, 10 μg/ml, Example 1 S (p = 0.003), Example 2 S (p = 0.0006), ginsenoside R0 S (p = 0.002), read-out: % stimulation/control (collagen I)); 81% in the assay with collagen III (10 μg/ml). For the same molecule, in the assay on collagen I (Homo sapiens, Fibroblast, 48 h, Table 2, 1.5 μg/ml, S (p = 0.024), read-out: % stimulation/control (collagen I)), the activation at 1.5 µg/mL worked out at 43%. Further, the “ng collagen I/10^4 cells/48 h” value in the assay with collagen I (Table 1, 1 μg/ml) is on record as 2172 ± 88 ng collagen I/10^4 cells/48 h; in the assay with collagen I (Table 1, 2.5 μg/ml) it was 2599 ± 163 ng collagen I/10^4 cells/48 h; in the assay with collagen I (Table 1, 10 μg/ml), 2889 ± 74 ng collagen I/10^4 cells/48 h. The “ng coll. I/10,000 HF/48 h” value in the assay on collagen I (Table 2, 1 μg/ml) is 2482 ± 276 ng coll. I/10,000 HF/48 h; in the assay with collagen I (Table 2, 1.5 μg/ml) it was 3529 ± 516 ng coll. I/10,000 HF/48 h; in the assay on collagen I (Table 2, 10 μg/ml), 4099 ± 480 ng coll. I/10,000 HF/48 h.
